pIC50: −log10 of the molar value.
Columns and labels:
Oryza sativa = test: Phytotoxic activity against Oryza sativa (rice) seeds assessed as inhibition of root growth at 25 degC measured after 7 days by crop selectivity assay; type: organism-based; conditions: L., 168 h
Echinochloa crus-galli [1] = test: Herbicidal activity against Echinochloa crus-galli (barnyard grass) seeds assessed as inhibition of root growth at 25 degC measured after 5 days; type: functional, organism-based; conditions: 120 h
[2] = Selectivity index, ratio of IC50 for Oryza sativa L. seeds to IC50 for Echinochloa crus-galli L. seeds
Echinochloa crus-galli [3] = test: Herbicidal activity against Echinochloa crus-galli (barnyard grass) seeds assessed as inhibition of root growth at 48 uM at 25 degC measured after 5 days; type: functional; conditions: 120 h, read-out: GI
Echinochloa crus-galli [4] = test: Ratio of propanil IC50 to compound IC50 for Echinochloa crus-galli (barnyard grass) seeds measured after 5 days; type: functional
[5] = Phytotoxic activity against Oryza sativa (rice) seeds assessed as inhibition of root growth at 48 uM at 25 degC measured after 7 days by crop selectivity assay; type: organism-based, L.; conditions: read-out: GI

`O=C1COc2ccccc2N1O` showed a pIC50 (Oryza sativa) of 3.83, a pIC50 (Echinochloa crus-galli [1]) of 3.63 and a Ratio IC50 [2] of 0.6.

`CCCCC1Oc2ccccc2N(O)C1=O` [2-Butyl-D-DIBOA] showed a pIC50 (Oryza sativa) of 3.38, a pIC50 (Echinochloa crus-galli [1]) of 3.72 and a Ratio IC50 [2] of 2.21.

Work on `CCOC(=O)C1(C)Oc2ccccc2N(O)C1=O` [2-Ethoxycarbonyl-2-methyl-D-DIBOA] yielded a pIC50 (Oryza sativa) of 2.54, a pIC50 (Echinochloa crus-galli [1]) of 3.18 and a Ratio IC50 [2] of 4.42.

For `CCOC(=O)C1Oc2ccccc2N(O)C1=O` [2-Ethoxycarbonyl-D-DIBOA], the pIC50 (Oryza sativa) was 2.84, the pIC50 (Echinochloa crus-galli [1]) was 3.54 and the Ratio IC50 [2] was 5.03.

Work on `CCC1Oc2ccccc2N(O)C1=O` [2-Ethyl-D-DIBOA] yielded a pIC50 (Oryza sativa) of 3.49, a pIC50 (Echinochloa crus-galli [1]) of 4.41 and an inhibition of growth at 48 µM (Echinochloa crus-galli [3]) of 50%. For the same compound, the “Ratio IC50” value (Echinochloa crus-galli [4]) was 3, the Ratio IC50 [2] was 8.35 and the inhibition at 168 h, 48 µM [5] was 20%.

`CCCCCCC1Oc2ccccc2N(O)C1=O` [2-Hexyl-D-DIBOA] gave a pIC50 (Oryza sativa) of 2.01, a pIC50 (Echinochloa crus-galli [1]) of 2.25 and a Ratio IC50 [2] of 1.77.

Work on `CC1Oc2ccccc2N(O)C1=O` [2-Methyl-D-DIBOA] yielded a pIC50 (Oryza sativa) of 3.32, a pIC50 (Echinochloa crus-galli [1]) of 3.53 and a Ratio IC50 [2] of 1.62.

`O=C1C(c2ccccc2)Oc2ccccc2N1O` [2-Phenyl-D-DIBOA] showed a pIC50 (Oryza sativa) of 3.22, a pIC50 (Echinochloa crus-galli [1]) of 3.69 and a Ratio IC50 [2] of 2.96.

`CCCC1Oc2ccccc2N(O)C1=O` [2-Propyl-D-DIBOA] showed a pIC50 (Oryza sativa) of 3.48, a pIC50 (Echinochloa crus-galli [1]) of 3.79 and a Ratio IC50 [2] of 2.05.

In the case of `CC(=O)ON1C(=O)COc2ccccc21` [ABOA], the pIC50 (Echinochloa crus-galli [1]) was 2.14.

Work on `CCCC(=O)ON1C(=O)COc2ccccc21` [BU-D-DIBOA] yielded a pIC50 (Echinochloa crus-galli [1]) of 2.61.

For `CCCCCCCCCC(=O)ON1C(=O)COc2ccccc21` [DEC-D-DIBOA], the pIC50 (Echinochloa crus-galli [1]) was 3.97.

`CCCCCCC(=O)ON1C(=O)COc2ccccc21` [HEPT-D-DIBOA] showed a pIC50 (Echinochloa crus-galli [1]) of 3.27.

For `CCCCCC(=O)ON1C(=O)COc2ccccc21` [HEX-D-DIBOA], the pIC50 (Echinochloa crus-galli [1]) was 2.92.

In the case of `CCCCCCCCCCCC(=O)ON1C(=O)COc2ccccc21` [LAU-DIBOA], the pIC50 (Echinochloa crus-galli [1]) was 3.77.

In the case of `CCCCCCCCCCCCCC(=O)ON1C(=O)COc2ccccc21` [MIR-D-DIBOA], the pIC50 (Echinochloa crus-galli [1]) was 3.69.

`CCCCCCCCC(=O)ON1C(=O)COc2ccccc21` [NON-D-DIBOA] showed a pIC50 (Echinochloa crus-galli [1]) of 2.84.

Work on `CCCCCCCC(=O)ON1C(=O)COc2ccccc21` [OCT-D-DIBOA] yielded a pIC50 (Echinochloa crus-galli [1]) of 3.35.

For `CCC(=O)ON1C(=O)COc2ccccc21` [PR-D-DIBOA], the pIC50 (Echinochloa crus-galli [1]) was 2.96.

`CCC(=O)Nc1ccc(Cl)c(Cl)c1` [PROPANIL] showed a pIC50 (Echinochloa crus-galli [1]) of 3.94.

`CCCCCCCCCCCCC(=O)ON1C(=O)COc2ccccc21` [TRIDEC-D-DIBOA] gave a pIC50 (Echinochloa crus-galli [1]) of 3.44.

`CCCCCCCCCCC(=O)ON1C(=O)COc2ccccc21` [UNDEC-D-DIBOA] gave a pIC50 (Echinochloa crus-galli [1]) of 3.37.

`CCCCC(=O)ON1C(=O)COc2ccccc21` [VAL-D-DIBOA] gave a pIC50 (Echinochloa crus-galli [1]) of 2.94.

Source: ChEMBL document CHEMBL3044579, “Modified benzoxazinones in the system Oryza sativa-Echinochloa crus-galli: an approach to the development of biorational herbicide models” (J Agric Food Chem, 2008)
